Tests used:
[1] = organism: Rattus norvegicus; test: Contralateral rotation produced by intrastriatal injection in rats with unilateral 6-hydroxydopamine-induced lesions of the substantia nigra at 90 nmol; turns/5 min; type: functional
[2] = organism: Rattus norvegicus; test: Maximal degree of inhibition was determined from displacement of [3H]dopamine binding to rat brain striatal membrane; type: functional
[3] = organism: Rattus norvegicus; test: Compound concentration required to reduce specific binding of tritiated dopamine to rat brain striatal membrane
[4] = organism: Rattus norvegicus; test: Contralateral rotation produced by intrastriatal injection in rats with unilateral 6-hydroxydopamine-induced lesions of the substantia nigra at 30 nmol; turns/5 min; type: functional
[5] = organism: Rattus norvegicus; test: Contralateral rotation produced by intrastriatal injection in rats with unilateral 6-hydroxydopamine-induced lesions of the substantia nigra at 10 nmol; type: functional
[6] = organism: Rattus norvegicus; test: Contralateral rotation produced by intrastriatal injection in rats with unilateral 6-hydroxydopamine-induced lesions of the substantia nigra at 2 microL; turns/5 min; type: functional
[7] = organism: Rattus norvegicus; test: Compound concentration required to reduce specific binding of tritiated dopamine to rat brain striatal membrane by 50 % was reported
[8] = organism: Rattus norvegicus; settings: Striatum, 1 uM
[9] = organism: Rattus norvegicus; test: Contralateral rotation produced by intrastriatal injection in rats with unilateral 6-hydroxydopamine-induced lesions of the substantia nigra at 10 nmol; turns/5 min; type: functional
[10] = organism: Rattus norvegicus; test: Maximal degree of inhibition at 3-30 uM concentration was determined from displacement of [3H]-dopamine binding to rat brain striatal membrane; type: functional

C[S+](C)CC(=O)c1ccc(O)c(O)c1.[I-]
Rate of rotation [1]: 38.83
inhibition [2]: 29%
IC50 [3]: 370 nM
Rate of rotation [4]: 25.33
Rate of rotation [5]: 8.4 turns 5min-1

O=C1O[C@H]([C@@H](O)CO)C(O)=C1O [ASCORBIC ACID]
Rate of rotation [6]: 4.5

NCCc1ccc(O)c(O)c1 [DOPAMINE]
IC50 [7]: 29 nM
Total binding [8]: 72%
Rate of rotation [9]: 39.75

C[S+](C)C
inhibition [10]: 9%

C[S+](C)CCc1ccc(O)c(O)c1.[I-]
Rate of rotation [1]: 31.5
Rate of rotation [9]: 11.25
inhibition [2]: 19%
IC50 [3]: 440 nM
Rate of rotation [4]: 20.75
